Molecules are shown by their SMILES. Several values for one entry are separate records, joined by “and”; a condition that tells them apart may be missing. Equal entries are not always repeated. Where two headings read alike, the source gives them in different places.

The solubility is the dissolved amount per volume that the medium holds.

For data set [1] the following is noted: in vivo; cited from earlier work.
The nature of data set [2]: contact angle measurements. The class given is physicochemical.
Data set [3] can be described thus: critical micelle concentration / equilibrium surface tension measurements. It counts as physicochemical. The conditions noted are these: substances separately, 37° C.
Text: Since the interfacial molecular areas can be determined from the slopes of equilibrium surface tensions measurements from FIG. A,B, just below the break points, they are easy to compare.
Data set [4] in a line: solute permeability of ions on artificial membranes. The note with it: 0.30 mM.
For data set [5] the following is noted: 40 mg furosemide, normal volunteers; cited from earlier work.
The nature of data set [6]: solubility of furosemide and triamterene. The class given is physicochemical.
Data set [7] in a line: solubilization and binding thermodynamics of furosemide in triamterene micelles. It counts as physicochemical.
For data set [8] the following is noted: 50 mg/day or 100 mg/day triamterene with 40 mg/day furosemide; cited from earlier work.
For data set [9] the following is noted: cited from earlier work.

Regarding `CCCCNc1cc(C(=O)O)cc(S(N)(=O)=O)c1Oc1ccccc1` [bumetanide], in data set [1], the “half life time t1/2” value is on record as “about 1 h”.

Turning to `NS(=O)(=O)c1cc(C(=O)O)c(NCc2ccco2)cc1Cl` [furosemide], the contact angle is 59 deg in data set [2] and 108 deg in data set [2] (complexing to stearate, phthalate, etc.). Also, the “critical micelle concentration (CMC)” value in data set [3] came out at 83 µM.

For `NS(=O)(=O)c1cc(C(=O)O)cc(N2CCCC2)c1Oc1ccccc1` [peritanide], the “half life time t1/2” value in data set [1] is “about 1 h”.

In data set [2], `Nc1nc(N)c2nc(-c3ccccc3)c(N)nc2n1` [triamterene] had a contact angle of 100 deg. The results for the “Solute permeability K (Cl)” value in [4] (compartment A) and in data set [4] (compartment B) were 170,3 ± 10,0 mol·s^-1·N^-1 and 90,5 ± 5,0 mol·s^-1·N^-1, respectively. The “Solute permeability Na (Cl)” value is 111,2 ± 12,0 mol·s^-1·N^-1 in data set [4] (compartment A) and 207,4 ± 8,0 mol·s^-1·N^-1 in data set [4] (compartment B). For the same compound, the “critical micelle concentration (CMC)” value in data set [3] stood at 15 µM. In [1], the “half life time t1/2” value is reported as 3.0 h. In [5], the “oral dose required to block the kaliuretic effect of furosemide” value is 50 mg and 100 mg. Moreover, the solubility in data set [6] (37° C., molar equivalent) is 0.0001184 mol/L; in data set [6] (37° C., molar equivalent in parentheses) it was 0,11 mMol; in data set [6] (molar, read-out: solubility), 0.000118 mol/L; in data set [6] (pH 5.5, read-out: solubility), 30 µg/mL; in data set [6] (pH 9-11.0) it was 5 µg/mL. Moreover, in [7], the “K(T) of triamterene micelle, times smaller than for a furosemide micelle” value is listed as “roughly 15 times”. Further, the “limiting value of n (aggregation number of triamterene micelles)” value is 15 in [7] (pH 2.5) and 25 in data set [7] (pH 7.9). Also, the “triamterene molecules required to solubilize furosemide” value (controlled release form of furosemide at basic pH) was 320-350 molecules. Also, the “triamterene molecules required to solubilize furosemide and furosemide in controlled release form” value (molar basis) was 298 molecules and 320 molecules and 324 molecules. Besides, the natriuretic effect entry in [8] is given as “agument the natriuretic effect”.

`Nc1nc(N)c2nc(-c3ccc(OS(=O)(=O)O)cc3)c(N)nc2n1` [hydroxy-triamterene-sulfuric acid ester]: the “plasma concentration relative to triamterene” value in data set [9] (intravenous, simultaneous with furosemide) is given as “about ten”. Besides, the “potassium loss caused by furosemide” value in data set [9] (simultaneous intravenous administration with furosemide) was “can be impeded”.

Values taken from US4834982A, “Potassium-neutral salureticum with anti-hypertensive effect” (priority 1987, dated 1989).
